Results from ChEMBL document CHEMBL5465560, “Selectivity Literature for EUbOPEN Chemogenomic Library” (2024).

What was measured:
[1] = target: T1, Serine/threonine-protein kinase ULK1 (Homo sapiens) (UniProt O75385); assay: Selectivity interaction (KinomeScan (DiscoverX)) EUB0000618a ULK1; settings: at 10 µM
T1 sequence (whole entry): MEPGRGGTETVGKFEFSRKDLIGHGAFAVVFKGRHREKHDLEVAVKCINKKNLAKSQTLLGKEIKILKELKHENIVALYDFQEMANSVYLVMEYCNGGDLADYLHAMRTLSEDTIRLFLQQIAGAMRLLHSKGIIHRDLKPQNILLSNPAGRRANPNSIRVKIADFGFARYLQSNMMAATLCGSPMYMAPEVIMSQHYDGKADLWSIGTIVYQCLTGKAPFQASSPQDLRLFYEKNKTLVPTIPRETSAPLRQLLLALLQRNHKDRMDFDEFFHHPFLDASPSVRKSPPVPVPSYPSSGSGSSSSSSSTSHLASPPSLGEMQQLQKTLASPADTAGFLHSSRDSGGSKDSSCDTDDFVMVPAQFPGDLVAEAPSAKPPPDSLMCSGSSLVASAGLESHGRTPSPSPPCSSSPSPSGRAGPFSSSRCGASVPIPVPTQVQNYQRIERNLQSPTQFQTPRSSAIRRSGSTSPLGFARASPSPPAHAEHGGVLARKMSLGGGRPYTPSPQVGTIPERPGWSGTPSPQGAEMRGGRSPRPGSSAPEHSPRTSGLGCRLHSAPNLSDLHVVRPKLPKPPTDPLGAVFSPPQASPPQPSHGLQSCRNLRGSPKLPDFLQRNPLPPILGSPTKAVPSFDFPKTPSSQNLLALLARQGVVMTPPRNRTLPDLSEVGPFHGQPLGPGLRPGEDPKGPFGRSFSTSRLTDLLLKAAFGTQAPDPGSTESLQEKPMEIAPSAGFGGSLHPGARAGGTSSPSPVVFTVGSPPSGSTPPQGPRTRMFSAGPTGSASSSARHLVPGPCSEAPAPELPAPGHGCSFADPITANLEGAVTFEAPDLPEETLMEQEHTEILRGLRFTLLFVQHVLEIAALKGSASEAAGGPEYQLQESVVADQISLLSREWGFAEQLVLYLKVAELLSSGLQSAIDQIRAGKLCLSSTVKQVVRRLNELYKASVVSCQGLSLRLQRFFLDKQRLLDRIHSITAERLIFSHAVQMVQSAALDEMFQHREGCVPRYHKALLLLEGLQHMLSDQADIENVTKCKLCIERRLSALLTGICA

[2] = target: T2, Histone-lysine N-methyltransferase NSD3 (Homo sapiens) (UniProt Q9BZ95); assay: Selectivity interaction (PWWP, WD40, and Tudor domain panel (DSLS measurements, literature)) EUB0000270b NSD3
T2 sequence (whole entry): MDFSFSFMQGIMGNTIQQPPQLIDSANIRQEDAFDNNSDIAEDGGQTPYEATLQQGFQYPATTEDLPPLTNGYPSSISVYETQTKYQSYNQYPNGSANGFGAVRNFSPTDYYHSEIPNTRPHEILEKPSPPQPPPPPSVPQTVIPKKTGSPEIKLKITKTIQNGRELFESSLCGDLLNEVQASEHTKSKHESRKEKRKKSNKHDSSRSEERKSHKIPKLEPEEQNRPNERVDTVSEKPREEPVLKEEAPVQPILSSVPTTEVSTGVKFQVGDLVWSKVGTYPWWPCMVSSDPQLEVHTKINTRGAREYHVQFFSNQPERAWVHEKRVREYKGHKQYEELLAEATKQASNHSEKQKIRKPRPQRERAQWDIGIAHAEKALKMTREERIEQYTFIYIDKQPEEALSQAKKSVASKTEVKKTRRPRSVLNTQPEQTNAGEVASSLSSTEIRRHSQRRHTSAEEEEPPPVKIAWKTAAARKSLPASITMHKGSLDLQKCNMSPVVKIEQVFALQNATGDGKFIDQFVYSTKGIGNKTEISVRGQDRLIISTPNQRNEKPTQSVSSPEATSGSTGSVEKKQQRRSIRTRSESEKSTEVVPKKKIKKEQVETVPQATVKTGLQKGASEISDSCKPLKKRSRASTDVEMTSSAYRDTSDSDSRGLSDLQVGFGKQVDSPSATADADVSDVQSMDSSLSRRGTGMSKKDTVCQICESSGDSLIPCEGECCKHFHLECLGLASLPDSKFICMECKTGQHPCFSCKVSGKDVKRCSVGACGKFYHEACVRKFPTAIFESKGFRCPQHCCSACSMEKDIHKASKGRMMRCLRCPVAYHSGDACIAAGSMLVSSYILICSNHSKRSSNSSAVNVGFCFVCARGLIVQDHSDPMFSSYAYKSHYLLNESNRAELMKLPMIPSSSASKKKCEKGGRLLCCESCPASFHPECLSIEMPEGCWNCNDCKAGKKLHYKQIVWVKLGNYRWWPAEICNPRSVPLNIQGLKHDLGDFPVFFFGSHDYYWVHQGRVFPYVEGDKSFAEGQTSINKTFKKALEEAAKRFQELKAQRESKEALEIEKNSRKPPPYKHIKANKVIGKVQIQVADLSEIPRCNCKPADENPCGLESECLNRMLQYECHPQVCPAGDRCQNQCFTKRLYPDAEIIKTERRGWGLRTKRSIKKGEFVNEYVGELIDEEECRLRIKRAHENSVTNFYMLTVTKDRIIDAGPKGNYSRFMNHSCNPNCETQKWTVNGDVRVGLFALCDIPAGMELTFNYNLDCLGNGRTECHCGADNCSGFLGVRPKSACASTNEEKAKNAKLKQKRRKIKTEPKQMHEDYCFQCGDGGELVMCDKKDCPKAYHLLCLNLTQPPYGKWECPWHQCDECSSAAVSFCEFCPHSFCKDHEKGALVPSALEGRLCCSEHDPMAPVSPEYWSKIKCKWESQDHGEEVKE

[3] = target: Epidermal growth factor receptor (Homo sapiens, UniProt P00533)
[4] = target: Dual specificity tyrosine-phosphorylation-regulated kinase 1B (Homo sapiens, UniProt Q9Y463); assay: Selectivity interaction (KinomeScan (DiscoverX)) EUB0000092b DYRK1B; settings: at 10 µM
[5] = target: Mitogen-activated protein kinase 7 (Homo sapiens) (UniProt Q13164); assay: Selectivity interaction (KinomeScan (DiscoverX)) EUB0000695a MAPK7; settings: at 100 nM
Chain of Mitogen-activated protein kinase 7 (Homo sapiens) (Q13164 2-816 limits assumed): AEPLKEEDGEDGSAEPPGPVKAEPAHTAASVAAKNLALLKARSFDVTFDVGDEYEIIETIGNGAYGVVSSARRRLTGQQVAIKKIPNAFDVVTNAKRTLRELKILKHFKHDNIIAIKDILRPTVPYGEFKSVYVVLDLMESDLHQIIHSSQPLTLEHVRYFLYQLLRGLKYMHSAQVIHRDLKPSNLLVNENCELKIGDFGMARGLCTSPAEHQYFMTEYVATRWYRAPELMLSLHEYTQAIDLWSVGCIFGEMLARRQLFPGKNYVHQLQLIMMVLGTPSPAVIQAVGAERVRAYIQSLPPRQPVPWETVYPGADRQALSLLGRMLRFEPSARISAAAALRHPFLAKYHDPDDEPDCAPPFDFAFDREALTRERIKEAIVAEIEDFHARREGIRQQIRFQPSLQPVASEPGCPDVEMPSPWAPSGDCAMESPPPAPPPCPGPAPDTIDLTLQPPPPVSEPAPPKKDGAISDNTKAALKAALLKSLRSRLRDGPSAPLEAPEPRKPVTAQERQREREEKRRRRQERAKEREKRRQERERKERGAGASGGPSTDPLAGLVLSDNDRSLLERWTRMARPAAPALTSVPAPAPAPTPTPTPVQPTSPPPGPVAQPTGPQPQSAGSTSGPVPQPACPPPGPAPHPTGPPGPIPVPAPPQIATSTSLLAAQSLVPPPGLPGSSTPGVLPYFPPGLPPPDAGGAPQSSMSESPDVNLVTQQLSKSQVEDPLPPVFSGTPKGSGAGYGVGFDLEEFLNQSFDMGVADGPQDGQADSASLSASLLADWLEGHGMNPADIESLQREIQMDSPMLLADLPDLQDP

Chain of Dual specificity tyrosine-phosphorylation-regulated kinase 1B (Q9Y463 whole entry, looked up): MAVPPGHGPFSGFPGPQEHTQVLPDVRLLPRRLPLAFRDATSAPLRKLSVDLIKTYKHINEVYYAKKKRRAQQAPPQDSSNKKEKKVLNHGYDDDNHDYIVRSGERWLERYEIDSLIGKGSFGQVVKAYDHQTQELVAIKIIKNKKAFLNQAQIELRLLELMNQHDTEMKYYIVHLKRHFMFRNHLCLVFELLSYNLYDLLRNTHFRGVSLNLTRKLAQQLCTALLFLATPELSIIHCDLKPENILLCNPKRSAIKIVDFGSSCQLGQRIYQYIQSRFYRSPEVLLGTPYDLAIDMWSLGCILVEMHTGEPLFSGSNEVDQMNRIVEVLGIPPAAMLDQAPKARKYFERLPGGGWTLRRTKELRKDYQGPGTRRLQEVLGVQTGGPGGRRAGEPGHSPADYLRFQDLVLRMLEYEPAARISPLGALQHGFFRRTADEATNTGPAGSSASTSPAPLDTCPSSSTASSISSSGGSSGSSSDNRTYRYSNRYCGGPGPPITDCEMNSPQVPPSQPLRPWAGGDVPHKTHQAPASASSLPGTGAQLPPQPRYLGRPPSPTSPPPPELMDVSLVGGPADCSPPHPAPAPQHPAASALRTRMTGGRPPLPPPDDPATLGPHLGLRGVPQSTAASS
Chain of Epidermal growth factor receptor (P00533 whole entry): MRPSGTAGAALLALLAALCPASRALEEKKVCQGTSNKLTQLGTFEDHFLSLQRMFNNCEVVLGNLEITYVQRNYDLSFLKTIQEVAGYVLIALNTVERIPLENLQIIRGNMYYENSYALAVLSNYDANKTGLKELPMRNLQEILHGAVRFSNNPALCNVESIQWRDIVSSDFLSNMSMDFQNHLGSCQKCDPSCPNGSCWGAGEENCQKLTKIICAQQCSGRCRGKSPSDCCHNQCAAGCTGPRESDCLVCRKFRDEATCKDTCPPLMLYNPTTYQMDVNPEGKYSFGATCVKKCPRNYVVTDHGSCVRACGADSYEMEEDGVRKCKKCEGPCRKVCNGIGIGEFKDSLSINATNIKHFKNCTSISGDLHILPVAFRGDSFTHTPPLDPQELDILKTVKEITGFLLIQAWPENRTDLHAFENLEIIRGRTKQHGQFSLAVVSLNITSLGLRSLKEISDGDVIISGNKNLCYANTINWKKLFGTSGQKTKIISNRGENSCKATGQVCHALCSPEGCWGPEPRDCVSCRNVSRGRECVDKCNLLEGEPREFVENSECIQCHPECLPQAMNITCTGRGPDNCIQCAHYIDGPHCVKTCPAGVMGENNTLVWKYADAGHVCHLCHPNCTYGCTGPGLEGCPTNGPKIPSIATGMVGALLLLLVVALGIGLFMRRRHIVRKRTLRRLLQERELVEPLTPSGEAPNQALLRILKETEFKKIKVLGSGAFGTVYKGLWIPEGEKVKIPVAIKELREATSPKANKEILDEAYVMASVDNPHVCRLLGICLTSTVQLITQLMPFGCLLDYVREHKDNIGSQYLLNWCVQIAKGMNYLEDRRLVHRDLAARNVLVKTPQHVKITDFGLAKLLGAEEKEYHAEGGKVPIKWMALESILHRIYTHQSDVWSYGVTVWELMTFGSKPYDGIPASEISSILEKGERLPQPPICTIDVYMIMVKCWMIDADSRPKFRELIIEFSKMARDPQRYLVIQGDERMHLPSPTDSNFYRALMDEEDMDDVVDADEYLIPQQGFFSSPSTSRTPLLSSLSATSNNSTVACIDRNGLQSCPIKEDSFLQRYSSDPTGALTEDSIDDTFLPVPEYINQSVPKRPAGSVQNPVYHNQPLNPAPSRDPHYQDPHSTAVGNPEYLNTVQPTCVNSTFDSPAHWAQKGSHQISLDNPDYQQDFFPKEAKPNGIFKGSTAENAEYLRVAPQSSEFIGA

`O[C@H]1CC[C@H](Nc2ncc3nc(Nc4c(F)cc(F)cc4F)n([C@H]4CCOC4)c3n2)CC1` showed a % of control [1] of 84%.

In the case of `Cc1cc(CN)cc(C)c1-c1ncn(C)c1-c1cncn1C`, the dTagg [2] is reported as 0.5 K.

For `CCc1cccc(CC)c1NC(=O)c1nn(C)c2c1CCc1cnc(Nc3ccc(C(=O)NC4CCN(C)CC4)cc3OC(F)(F)F)nc1-2`, the IC50 [3] was > 10 µM.

`CCC(=O)N1CCN(c2ccc(-n3c(=O)ccc4cnc5ccc(-c6cnc7ccccc7c6)cc5c43)cc2C(F)(F)F)CC1` was tested, and the % of control [4] was 87%.

Compound `Cc1cc(F)c(C(=O)Nc2cccc(-c3nncn3C(C)C)n2)cc1-n1cnc(C2CC2)c1` has a % of control [5] of 100%.
